# Results taken from patent US20240254119A1 (THIRD HARMONIC BIO, INC., priority 2022, published 2024).
# Experiments:
# Kinetic solubility assay = assay type: physicochemical; conditions: kinetic solubility, 50 mM PB (pH 7.4), shaken 24 hours at RT
# Method in brief: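 Concentration in the filtrate was determined by UPLC-UV or HPLC-UV with a standard curve. Before that, compound (10 mM DMSO stock) in 50 mM PB at pH 7.4 was agitated 24 h at room temperature, then PTFE-filtered with centrifugation.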
# CSF-1R [1] = target: T1, CSF-1R (Homo sapiens, UniProt P07333); experiment: HTRF biochemical assay, CSF-1R; conditions: Table 4
# T1 construct: purchased Invitrogen PV3249 (lot 662393N)
# Protocol: (§1) Exemplary compounds were tested for ability to inhibit the phosphorylation of a peptide substrate by the tyrosine kinase wt KIT, PDGFRα, or CSF-1R. Assay procedures and results are described below.
# (§2) Enzyme, substrate, and cofactors (ATP and Mn^2+) are combined in a well of a microtiter plate and incubated for 3 hours at 25° C. At the end of the incubation, the reaction is quenched by the addition of an EDTA-containing buffer.
# (§3) The substrate used in the CSF-1R and PDGFRα assay is FAM-[…]-CONH2 (FAM is carboxyfluorescein). Peptide should be >95% purity. The substrate for the KIT assay is FAM-[…]-NH2.
# (§4) • 1. To a well of a 384-wellplate add 5 μL of 2× enzyme buffer (or control). • 2. Add 100 nL of 100× compound. Enzyme and compound may be pre-incubated at this time if desired. • 3. Add 5 μL of 2× substrate buffer. • 4. Incubate plate at 25° C. for 3 hours. • 5. Add 10 uL of anti-phosphotyrosine antibody buffer. • 6. Read plate in BioTek Synergy Reader. Reaction Conditions for wtKIT Assay
# PDGFRα [2] = target: T2, PDGFRα (Homo sapiens, UniProt P16234); experiment: HTRF biochemical assay, PDGFRα; conditions: Table 4, read-out: PDFGRα Biochemical IC50 avg
# T2 construct: purchased Millipore 14-467 (lot 26321_ACTI)
# Protocol: as §1, §2, §3, §4
# wtKIT [3] = target: T3, wtKIT (Homo sapiens, UniProt P10721); experiment: HTRF biochemical assay, wtKIT (phosphorylation of a peptide substrate); conditions: Table 4
# T3 construct: 1888289AM in the reaction mixtures
# Method in brief: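 HTRF read-out of FAM-peptide (1 µM) phosphorylation after anti-phosphotyrosine antibody addition and EDTA quench. Reaction: 5.0 nM wtKIT, 400 µM ATP, 10 mM Mn2+, HEPES pH 7.5, 1% DMSO, 3 h, 25 °C; optional enzyme-compound preincubation; enzyme level set for 10-20% conversion.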
# [4] = system: KIT phosphorylation in M-07e cells; experiment: Cell-based KIT phosphorylation in M-07e cells by pKIT ELISA; design: species or system human; conditions: SCF stimulation
# Protocol: Exemplary compounds were tested for ability to inhibit KIT phosphorylation using M-07e cells as monitored by pKIT ELISA. M-07e cells are also represented as M-07E, M-07e, M07-e, M07e, Mo7e, MO7e, M07E and MO7E. Assay procedures and results are described below.
# Part I—Procedures for Determining KIT Inhibition inM-07e Cells Using pKTT ELISA Reagents and consumables: • M-07e cells: Initially obtained from Accegen, cat #ABC-TC1313 • p-cKIT Capture ELISA antibody: anti-Human Phospho-CD117/c-kit, R&D cat #DYC3527-5 • Anti-pY-HIRP antibody: R&D cat #DYC3527-5 • 25× wash buffer: Quantikine ELISA Wash Buffer 1, R&D cat #WA126 • PBS: R&D cat #DY006 • 96 well ELISA plates: Clear Polystyrene Microplates, R&D Cat #DY990 • 96 well Tissue culture plates: Corning® 96 Well TC-Treated Microplates, cat #CLS3894 • RPMI medium: ATCC® RPMI-1640 Medium, Cat #30-2001 • FBS: Fetal Bovine Serum, certified, United States Gibco, Thermo-Fisher 16000044 • GM-CSF: Recombinant Human GM-CSF Protein, R&D cat #215-GM • SCF: Recombinant Human SCF Protein, R&D cat #255-SC
# • 1. Prepare cells: • a. Culture M-07e cells in RPMI medium+20% serum+GM-CSF+penstrep • To make 50 mL of growth medium • i. 40 mL RPMI media • ii. 10 mL FBS • iii. 10 uL of GM-CSF (100 ug/mL stock) • iv. 0.5 mL pen strep (100×) • b. Harvest cells • c. Re-suspend cells in 100% RPMI media (without serum) to final concentration of 1 million cells/mL • d. Transfer 100 uL of cell solution to 11 columns of a 96 well flat bottom cell culture plate • e. Incubate cells over night at 37 C • 2. Prepare ELISA Plates: • a. Dilute capture antibody to concentration 4 ug/mL in PBS • b. Coat 96 well microplates with 100 uL of capture antibody • c. Seal plates and incubate at RT overnight • d. Wash plates with 300 uL of wash buffer • e. Repeat wash • f. Treat plates with 300 uL of blocking buffer at RT for 1 hour • 3. Addition of compounds: • a. Prepare compound dilutions in RPMI media • i. Top test concentration is 1 uM • ii. Serially dilute compounds 3× for a total of 8 concentrations • b. Add 10 uL of 10× compound dilutions to cells • i. No compounds added in column 11 (for controls) • c. Incubate cells with compounds for 2 hours at 37 C • d. Stimulate cells with SCF for 5 min at concentration of 100 ng/mL (final) • i. In column 11 stimulate top 4 wells. Leave bottom 4 wells unstimulated • e. Remove cell culture media with multichannel pipet • f. Add 110 uL of Lysis buffer to all wells • g. Incubate plates at RT for 30 min while shaking • 4. Transfer 100 uL of cell lysis to each prepared Elisa plate • 5. Add 100 uL of the standard pc-KIT dilutions to the standard wells in column 12 • a. Top concentration=2000 pg/mL • b. 2× dilutions • 6. Incubate ELISA plate with cell lysate for 2 hours at RT • 7. Wash Plate with wash buffer (wash 1) • 8. Repeat wash (wash 2) • 9. […] Add 100 uL of diluted anti-pY-HRP (1/1000 dilution in detection antibody dilution buffer) and incubate 2 hours at RT • 11. Wash plate with wash buffer (wash 1) • 12. Repeat wash (wash 2) • 13. Repeat wash (wash 3) • 14. Add 100 uL of substrate solution to each well • 15. Incubate plates 20 min • Note: Plate development is indicated by aqua color • 16. Add 50 uL of stop solution to each well • 17. Determine optical density on Bitek Synergy Neo2: • a. Make new experiment
# Select absorbance 1 set to 450 nm
# PDGFRα [5] = target: T2, PDGFRα; experiment: Caliper biochemical assay, PDGFRα; conditions: Table 6
# Method in brief: (§5)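 Mobility-shift readout: after EDTA quench, fluorescent peptide and product are resolved electrophoretically on a LabChip and measured by fluorescence. Reactions contain enzyme, carboxyfluorescein peptide, ATP, Mn^2+ and compound, run 3 h at 25° C; 100% inhibition control lacks enzyme.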
# CSF-1R [6] = target: T1, CSF-1R; experiment: Caliper biochemical assay, CSF-1R; conditions: Table 6
# Method in brief: as §5
# wtKIT [7] = target: T3, wtKIT; experiment: Caliper biochemical assay, wtKIT; conditions: Table 6, read-out: KIT Biochemical IC50 avg
# Method in brief: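 Mobility-shift read-out: after EDTA stop, fluorescent peptide substrate and product resolved electrophoretically on LabChip 3000. Reaction ran 3 h at 25° C with 400 μM ATP, Mn^2+ cofactor, 5.0 nM wtKIT, 1 μM FAM-peptide, pH 7.5 HEPES buffer; no-enzyme wells defined full inhibition.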
# [8] = target: T4, BCRP (BCRP-MDCKII monolayer) (Homo sapiens, UniProt Q9UNQ0); experiment: MDCKII-BCRP bidirectional transport assay; assay type: in vitro ADME
# T4 construct: host or cells: MDCKII (canine kidney) cells
# T4 sequence (Q9UNQ0 1-655): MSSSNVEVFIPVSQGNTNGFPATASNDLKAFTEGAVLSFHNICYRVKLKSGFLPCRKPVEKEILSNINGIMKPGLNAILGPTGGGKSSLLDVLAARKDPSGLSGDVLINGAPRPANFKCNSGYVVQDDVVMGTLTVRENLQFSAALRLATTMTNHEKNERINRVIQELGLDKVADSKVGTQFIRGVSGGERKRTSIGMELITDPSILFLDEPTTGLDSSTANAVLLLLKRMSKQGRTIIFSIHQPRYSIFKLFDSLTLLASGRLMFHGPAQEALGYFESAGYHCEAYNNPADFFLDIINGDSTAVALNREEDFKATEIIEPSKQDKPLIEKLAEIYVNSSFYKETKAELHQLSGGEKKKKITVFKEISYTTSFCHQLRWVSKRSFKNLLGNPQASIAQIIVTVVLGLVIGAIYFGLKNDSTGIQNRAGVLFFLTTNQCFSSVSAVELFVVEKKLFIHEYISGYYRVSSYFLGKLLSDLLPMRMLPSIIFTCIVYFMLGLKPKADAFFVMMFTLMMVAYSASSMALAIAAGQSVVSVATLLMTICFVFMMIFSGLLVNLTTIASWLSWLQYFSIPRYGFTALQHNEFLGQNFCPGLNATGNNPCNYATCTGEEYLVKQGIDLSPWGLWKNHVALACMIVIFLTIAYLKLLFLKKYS
# Method in brief: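 Efflux ratios were derived from Papp values, alongside recovery, with compounds quantified by LC-MS/MS. Both directions were tested in duplicate across BCRP-MDCKII monolayers used on days 12–15. Incubation ran 120 min at 37° C, 5% CO2, after a 15 min preincubation in assay buffer.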
# T1 sequence (P07333 20-972): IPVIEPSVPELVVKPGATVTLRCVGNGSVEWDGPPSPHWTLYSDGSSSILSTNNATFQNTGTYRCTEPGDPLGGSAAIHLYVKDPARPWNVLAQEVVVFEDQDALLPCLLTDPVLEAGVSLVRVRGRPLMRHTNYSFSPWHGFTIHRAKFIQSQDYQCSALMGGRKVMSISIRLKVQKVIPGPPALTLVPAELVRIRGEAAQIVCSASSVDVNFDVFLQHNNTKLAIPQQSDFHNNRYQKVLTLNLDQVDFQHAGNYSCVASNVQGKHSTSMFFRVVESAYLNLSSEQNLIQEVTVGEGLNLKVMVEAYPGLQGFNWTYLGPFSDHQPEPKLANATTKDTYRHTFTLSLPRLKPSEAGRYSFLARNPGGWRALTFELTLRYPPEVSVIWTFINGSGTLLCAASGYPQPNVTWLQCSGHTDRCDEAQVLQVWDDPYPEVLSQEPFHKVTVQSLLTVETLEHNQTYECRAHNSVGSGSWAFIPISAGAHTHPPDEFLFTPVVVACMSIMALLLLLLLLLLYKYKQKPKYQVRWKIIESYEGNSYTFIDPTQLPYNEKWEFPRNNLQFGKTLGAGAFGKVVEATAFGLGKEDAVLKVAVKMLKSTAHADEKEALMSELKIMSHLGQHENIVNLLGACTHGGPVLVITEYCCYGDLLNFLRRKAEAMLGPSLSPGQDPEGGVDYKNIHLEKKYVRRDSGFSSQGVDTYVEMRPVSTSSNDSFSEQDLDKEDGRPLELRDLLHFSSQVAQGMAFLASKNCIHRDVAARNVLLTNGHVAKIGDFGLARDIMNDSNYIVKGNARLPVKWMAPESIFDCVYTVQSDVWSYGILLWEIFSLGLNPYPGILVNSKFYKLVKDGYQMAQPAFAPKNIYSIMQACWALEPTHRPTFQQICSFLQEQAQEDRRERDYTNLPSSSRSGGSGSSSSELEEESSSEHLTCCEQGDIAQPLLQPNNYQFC
# T2 sequence (P16234 24-1089): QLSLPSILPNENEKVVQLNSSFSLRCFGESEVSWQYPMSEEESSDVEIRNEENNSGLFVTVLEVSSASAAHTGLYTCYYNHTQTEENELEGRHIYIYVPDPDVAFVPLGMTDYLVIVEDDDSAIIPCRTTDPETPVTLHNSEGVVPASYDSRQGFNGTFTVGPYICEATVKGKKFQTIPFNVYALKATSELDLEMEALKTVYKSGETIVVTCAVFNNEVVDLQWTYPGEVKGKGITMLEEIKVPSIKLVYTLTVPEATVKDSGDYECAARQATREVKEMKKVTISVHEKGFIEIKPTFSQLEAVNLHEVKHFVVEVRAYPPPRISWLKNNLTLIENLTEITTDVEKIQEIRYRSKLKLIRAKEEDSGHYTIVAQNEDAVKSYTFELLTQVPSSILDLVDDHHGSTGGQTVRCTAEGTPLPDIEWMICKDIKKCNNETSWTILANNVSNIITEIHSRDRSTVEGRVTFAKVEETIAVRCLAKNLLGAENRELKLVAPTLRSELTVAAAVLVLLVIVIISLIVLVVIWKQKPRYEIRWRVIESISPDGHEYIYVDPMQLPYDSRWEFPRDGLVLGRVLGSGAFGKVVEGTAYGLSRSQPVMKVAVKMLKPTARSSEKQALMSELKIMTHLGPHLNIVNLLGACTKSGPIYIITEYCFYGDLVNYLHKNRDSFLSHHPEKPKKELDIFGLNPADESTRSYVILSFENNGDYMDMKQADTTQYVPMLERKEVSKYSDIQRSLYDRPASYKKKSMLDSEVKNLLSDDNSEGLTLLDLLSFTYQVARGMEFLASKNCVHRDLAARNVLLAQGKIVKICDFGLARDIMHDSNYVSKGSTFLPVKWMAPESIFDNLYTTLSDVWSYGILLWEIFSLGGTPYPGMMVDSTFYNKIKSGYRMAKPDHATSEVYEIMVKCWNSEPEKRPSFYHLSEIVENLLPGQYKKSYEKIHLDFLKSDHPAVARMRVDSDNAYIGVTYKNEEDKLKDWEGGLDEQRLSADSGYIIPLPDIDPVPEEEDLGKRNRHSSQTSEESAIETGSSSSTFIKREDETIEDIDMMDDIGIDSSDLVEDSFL
# T3 sequence (P10721 26-976): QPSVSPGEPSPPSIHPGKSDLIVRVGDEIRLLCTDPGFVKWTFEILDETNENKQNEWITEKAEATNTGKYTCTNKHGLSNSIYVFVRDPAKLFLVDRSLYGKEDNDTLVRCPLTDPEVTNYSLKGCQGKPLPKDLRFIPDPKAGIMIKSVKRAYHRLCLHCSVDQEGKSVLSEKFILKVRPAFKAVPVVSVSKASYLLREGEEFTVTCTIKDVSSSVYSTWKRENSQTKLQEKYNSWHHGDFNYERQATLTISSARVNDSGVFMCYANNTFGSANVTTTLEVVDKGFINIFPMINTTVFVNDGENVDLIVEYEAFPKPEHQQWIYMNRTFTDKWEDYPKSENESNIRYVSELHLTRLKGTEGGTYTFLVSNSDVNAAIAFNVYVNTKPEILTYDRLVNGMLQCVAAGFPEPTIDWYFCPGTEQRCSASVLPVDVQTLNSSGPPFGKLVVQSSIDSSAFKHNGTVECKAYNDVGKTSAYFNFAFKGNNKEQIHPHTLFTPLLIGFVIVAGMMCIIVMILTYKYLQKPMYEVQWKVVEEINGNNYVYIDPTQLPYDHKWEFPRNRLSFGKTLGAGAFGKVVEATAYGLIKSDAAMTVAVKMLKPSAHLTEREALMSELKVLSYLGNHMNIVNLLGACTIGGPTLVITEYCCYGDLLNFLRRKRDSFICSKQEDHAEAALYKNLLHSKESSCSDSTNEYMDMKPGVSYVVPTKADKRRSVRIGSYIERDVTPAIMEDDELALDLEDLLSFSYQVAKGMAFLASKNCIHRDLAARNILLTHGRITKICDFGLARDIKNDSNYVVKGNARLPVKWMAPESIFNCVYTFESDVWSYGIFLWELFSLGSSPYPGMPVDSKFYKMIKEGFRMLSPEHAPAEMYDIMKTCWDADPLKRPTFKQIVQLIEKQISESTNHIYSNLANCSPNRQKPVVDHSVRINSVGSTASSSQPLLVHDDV
Compound,Solubility (μM) (Kinetic solubility assay),IC50 (CSF-1R [1]),IC50 (PDGFRα [2]),IC50 (wtKIT [3]),IC50 [4],IC50 (PDGFRα [5]),IC50 (CSF-1R [6]),IC50 (wtKIT [7]),MDCK-BCRP: Efflux Ratio [8],MDCK-BCRP: Papp A-B ([8]; apical to basolateral)
Cc1ccc(-c2noc(C3CC3F)n2)cc1NC(=O)c1cnc2cc(COC3CC(O)C3)ccn12 (mixture of isomers) [Compound I-72],**** (a solubility less than or equal to 2 μM),≤ 50 nM,500 to 5000 nM,≤ 50 nM,≤ 50 nM,,,,,
Cc1ccc(-c2noc(C(F)C3CC3)n2)cc1NC(=O)c1cnc2ccccn12 (racemic) [Compound I-77],**** (a solubility less than or equal to 2 μM),50 to 500 nM,5000 to 30000 nM,≤ 50 nM,≤ 50 nM,,,,,
Cc1ccc(-c2noc(C(O)C3CC3)n2)cc1NC(=O)c1cnc2ccccn12 (racemic) [Compound I-78],**** (a solubility less than or equal to 2 μM),50 to 500 nM,500 to 5000 nM,≤ 50 nM,≤ 50 nM,,,,,
Cc1cc(C)c(-c2noc(C3CC3(F)F)n2)cc1NC(=O)c1cnc2ccccn12 (racemic) [Compound I-129],**** (a solubility less than or equal to 2 μM),≤ 50 nM,500 to 5000 nM,≤ 50 nM,,500 to 5000 nM,≤ 50 nM,≤ 50 nM,,
COc1ccc2ncc(C(=O)Nc3cc(-c4noc(C[C@H](C)O)n4)ccc3C)n2c1 [Compound I-89],,50 to 500 nM,500 to 5000 nM,≤ 50 nM,≤ 50 nM,,,,,
COCc1ccn2c(C(=O)Nc3cc(-c4noc(C)n4)ccc3C)cnc2c1 [Compound I-132],**** (a solubility less than or equal to 2 μM),5000 to 30000 nM,500 to 5000 nM,≤ 50 nM,,500 to 5000 nM,500 to 5000 nM,≤ 50 nM,,
COCCS(=O)(=O)N1CC[C@H]1c1nc(-c2ccc(C)c(NC(=O)c3cnc4ccccn34)c2)no1 [Compound I-189],** (a solubility greater than 10 μM and less than or equal to 50 μM),500 to 5000 nM,500 to 5000 nM,≤ 50 nM,,500 to 5000 nM,50 to 500 nM,50 to 500 nM,,
Cc1ccc(-c2noc([C@H]3CC(F)(F)CN3)n2)cc1NC(=O)c1cnn2ccccc12 [Compound I-243],* (a solubility greater than 50 μM),50 to 500 nM,50 to 500 nM,≤ 50 nM,,50 to 500 nM,50 to 500 nM,≤ 50 nM,,
Cc1ccc(-c2noc([C@@H]3CCCO3)n2)cc1NC(=O)c1cnc2ccccn12 [Compound I-396],**** (a solubility less than or equal to 2 μM),50 to 500 nM,500 to 5000 nM,≤ 50 nM,,500 to 5000 nM,50 to 500 nM,≤ 50 nM,2.86,8.25 10^−6 cm/s
Cc1ccc(-c2noc(C3CC(O)C3)n2)cc1NC(=O)c1cnn2cc(-c3ccn(C)n3)ccc12 (centres unmarked) [Compound I-652],,≤ 50 nM,50 to 500 nM,≤ 50 nM,,,,,,
Cc1nc(-c2ccc(F)c(NC(=O)c3cnn4cc(-c5ccn(C)n5)ccc34)c2)no1 [Compound I-657],,50 to 500 nM,500 to 5000 nM,≤ 50 nM,,,,,,
COCc1ccn2c(C(=O)Nc3cc(-c4noc(C)n4)ccc3F)cnc2c1 [Compound I-658],,500 to 5000 nM,5000 to 30000 nM,500 to 5000 nM,,,,,,
Cc1nc(-c2ccc(C)c(NC(=O)c3cnc4cc(OCCCN(C(=O)OC(C)(C)C)C5COC5)ccn34)c2)no1 [Compound I-660],,50 to 500 nM,500 to 5000 nM,≤ 50 nM,,,,,,
COCc1ccn2c(C(=O)Nc3cc(-c4noc(C(F)(F)F)n4)ccc3C)cnc2c1 [Compound I-664],,50 to 500 nM,500 to 5000 nM,50 to 500 nM,,,,,,
